According to patent US9067881B2, “4-tolyl-ethynyl-octahydro-indole-1-ester derivatives” (NOVARTIS AG, priority 2011, dated 2015):
Converted amounts (≈) assume the structure as drawn.

What was measured:
human mGluR5 = molecular target: T1, human mGluR5 (Homo sapiens, UniProt P41594); assay: In-vitro activity of mGluR5 antagonists (inhibition of agonist induced elevation of intracellular Ca2+ or inositol phosphate turnover at recombinant human mGluR5); type: cell-based; details: recombinant human mGluR5, antagonism
T1 construct: expressed in transfected cells

[1] = Solubility in Cl free phosphate buffer pH 6.8; type: physicochemical; details: aqueous buffer; Cl free phosphate buffer (0.067 M) pH 6.8
[2] = In-vitro clearance in rat liver microsomes (metabolic stability, compound depletion)
[3] = In-vitro clearance in human liver microsomes (metabolic stability, compound depletion)
[4] = microsomes
[5] = microsomes; remark: listed apart in the source

T1 sequence (P41594 21-1180 isoform P41594-2 limits assumed): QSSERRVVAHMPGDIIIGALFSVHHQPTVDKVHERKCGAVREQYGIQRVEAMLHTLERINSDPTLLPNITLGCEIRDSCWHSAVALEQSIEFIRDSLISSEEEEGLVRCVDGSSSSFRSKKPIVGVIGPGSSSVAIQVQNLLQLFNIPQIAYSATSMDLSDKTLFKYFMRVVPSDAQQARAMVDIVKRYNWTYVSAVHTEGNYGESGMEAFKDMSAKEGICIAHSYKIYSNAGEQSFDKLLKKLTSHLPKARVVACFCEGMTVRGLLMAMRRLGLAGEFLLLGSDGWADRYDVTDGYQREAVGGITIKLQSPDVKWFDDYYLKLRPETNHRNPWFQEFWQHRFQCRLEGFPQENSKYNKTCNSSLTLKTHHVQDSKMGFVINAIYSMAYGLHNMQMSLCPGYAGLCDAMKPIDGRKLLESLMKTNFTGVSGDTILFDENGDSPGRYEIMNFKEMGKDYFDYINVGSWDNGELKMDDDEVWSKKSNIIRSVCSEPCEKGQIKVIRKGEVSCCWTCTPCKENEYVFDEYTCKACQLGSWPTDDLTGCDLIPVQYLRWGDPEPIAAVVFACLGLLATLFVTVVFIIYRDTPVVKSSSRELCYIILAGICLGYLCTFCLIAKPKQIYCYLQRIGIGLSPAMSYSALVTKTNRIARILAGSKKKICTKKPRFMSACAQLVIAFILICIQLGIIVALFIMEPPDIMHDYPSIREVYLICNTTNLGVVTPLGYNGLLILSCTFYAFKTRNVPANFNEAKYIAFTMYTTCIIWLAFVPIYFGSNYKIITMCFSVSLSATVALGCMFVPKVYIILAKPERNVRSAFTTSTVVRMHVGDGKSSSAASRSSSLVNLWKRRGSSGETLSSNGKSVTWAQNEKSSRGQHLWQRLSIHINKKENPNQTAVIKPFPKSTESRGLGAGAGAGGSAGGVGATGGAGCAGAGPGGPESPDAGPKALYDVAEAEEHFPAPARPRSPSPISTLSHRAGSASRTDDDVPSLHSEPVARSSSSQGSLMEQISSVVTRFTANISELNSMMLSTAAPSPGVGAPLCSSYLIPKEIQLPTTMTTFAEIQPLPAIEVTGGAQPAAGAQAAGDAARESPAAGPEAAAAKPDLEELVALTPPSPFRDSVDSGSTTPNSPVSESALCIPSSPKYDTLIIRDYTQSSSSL

Compound	IC50 (human mGluR5)	solubility [1]	microsomal CLint at 1 μM [2]	microsomal CLint at 1 μM [3]	CL (rat) [4]	CL (human) [5]
CCOC(=O)N1CC[C@@H]2[C@H]1CCC[C@@]2(O)C#Cc1cccc(C)c1 [Example 2.0]	42 nM					
COC(=O)N1CC[C@@H]2[C@H]1CCC[C@]2(C#Cc1cccc(C)c1)OC(=O)CN1CCOCC1 [Example 26, (3aR,4S,7aR)-4-(2-Morpholin-4-yl-acetoxy)-4-m-tolylethynyl-octahydro-indole-1-carboxylic acid methyl ester]		138 µg/mL (≈ 313 µM)	533 µL/min/mg	770 µL/min/mg		
COC(=O)N1CC[C@@H]2[C@H]1CCC[C@]2(C#Cc1cccc(C)c1)OC(=O)CCN1CCOCC1 [Example 27, (3aR,4S,7aR)-4-(3-Morpholin-4-yl-propionyloxy)-4-m-tolylethynyl-octahydro-indole-1-carboxylic acid methyl ester]		108 µg/mL (≈ 238 µM)	533 µL/min/mg	94 µL/min/mg		
COC(=O)N1CC[C@@H]2[C@H]1CCC[C@]2(C#Cc1cccc(C)c1)OC(=O)CCN1CCCC1 [Example 29, (3aR,4S,7aR)-4-(3-Pyrrolidin-1-yl-propionyloxy)-4-m-tolylethynyl-octahydro-indole-1-carboxylic acid methyl ester]		439 µg/mL (≈ 1000 µM)	730 µL/min/mg	660 µL/min/mg		
COC(=O)N1CC[C@@H]2[C@H]1CCC[C@]2(C#Cc1cccc(C)c1)OC(=O)[C@@H](N)c1ccccc1 [Example 41, (3aR,4S,7aR)-methyl 4-((S)-2-amino-2-phenylacetoxy)-4-(m-tolylethynyl)octahydro-1H-indole-1-carboxylate]		3 µg/mL (≈ 6.72 µM)	579 µL/min/mg	693 µL/min/mg		
(3aR,4S,7aR)-4-((S,R)-2-Amino-3-methyl-butyryloxy)-4-m-tolylethynyl-octahydro-indole-1-carboxylic acid methyl ester [Example 4]					478 µL/min/mg	630 µL/min/mg
